This is an account of results in ChEMBL document CHEMBL5696442, “Discovery of type II inhibitors of TGFβ-activated kinase 1 (TAK1) and mitogen-activated protein kinase kinase kinase kinase 2 (MAP4K2)” (J Med Chem, 2015).

For assay [1], the target named is T1, Serine/threonine-protein kinase TAO3 (Homo sapiens) (UniProt Q9H2K8).
T1 sequence (whole entry): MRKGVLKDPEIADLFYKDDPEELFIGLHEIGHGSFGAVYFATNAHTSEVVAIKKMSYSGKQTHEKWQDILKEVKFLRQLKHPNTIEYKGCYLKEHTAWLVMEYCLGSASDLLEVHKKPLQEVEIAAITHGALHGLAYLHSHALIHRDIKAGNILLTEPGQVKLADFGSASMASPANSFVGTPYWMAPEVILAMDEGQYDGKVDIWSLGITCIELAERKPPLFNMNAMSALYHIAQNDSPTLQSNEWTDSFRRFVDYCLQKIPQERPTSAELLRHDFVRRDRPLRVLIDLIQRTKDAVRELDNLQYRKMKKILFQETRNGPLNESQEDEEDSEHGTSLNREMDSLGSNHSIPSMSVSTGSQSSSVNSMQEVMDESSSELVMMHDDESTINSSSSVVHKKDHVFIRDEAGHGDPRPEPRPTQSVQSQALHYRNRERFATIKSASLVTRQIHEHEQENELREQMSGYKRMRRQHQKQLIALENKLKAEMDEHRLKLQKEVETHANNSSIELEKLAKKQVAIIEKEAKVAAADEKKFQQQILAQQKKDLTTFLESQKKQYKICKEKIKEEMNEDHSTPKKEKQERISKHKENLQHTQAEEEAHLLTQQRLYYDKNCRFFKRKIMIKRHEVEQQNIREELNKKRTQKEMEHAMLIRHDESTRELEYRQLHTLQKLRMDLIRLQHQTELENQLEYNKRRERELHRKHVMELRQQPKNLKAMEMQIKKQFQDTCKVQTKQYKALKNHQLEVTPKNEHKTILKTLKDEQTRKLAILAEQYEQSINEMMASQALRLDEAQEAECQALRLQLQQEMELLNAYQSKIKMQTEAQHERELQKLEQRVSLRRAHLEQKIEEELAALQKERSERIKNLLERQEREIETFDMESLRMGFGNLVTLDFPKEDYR
As to the kind of experiment: Inhibition of TAOK3 (unknown origin) at 1 uM by Ambit Kinomescan binding assay relative to control; values are per cent of control.

Assay [2] deals with Glycogen synthase kinase-3 alpha (Homo sapiens) (UniProt P49840). As to the kind of experiment: Inhibition of GSK3A (unknown origin) at 10 uM by Ambit Kinomescan binding assay.
Glycogen synthase kinase-3 alpha (Homo sapiens), sequence (P49840 2-483 limits assumed): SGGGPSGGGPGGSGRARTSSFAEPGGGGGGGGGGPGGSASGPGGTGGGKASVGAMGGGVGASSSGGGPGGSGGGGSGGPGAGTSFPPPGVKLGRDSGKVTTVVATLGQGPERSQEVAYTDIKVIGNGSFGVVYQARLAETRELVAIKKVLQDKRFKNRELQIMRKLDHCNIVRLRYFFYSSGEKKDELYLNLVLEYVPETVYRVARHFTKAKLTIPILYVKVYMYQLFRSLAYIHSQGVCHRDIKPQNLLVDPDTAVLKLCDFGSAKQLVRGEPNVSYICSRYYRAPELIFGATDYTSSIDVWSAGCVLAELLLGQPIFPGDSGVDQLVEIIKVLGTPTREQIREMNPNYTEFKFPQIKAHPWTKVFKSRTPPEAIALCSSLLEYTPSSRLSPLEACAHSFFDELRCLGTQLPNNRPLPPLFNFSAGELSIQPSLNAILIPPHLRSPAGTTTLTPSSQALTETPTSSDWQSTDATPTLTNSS
Assay [3] has as its target T2, Mitogen-activated protein kinase kinase kinase 5 (Homo sapiens) (UniProt Q99683).
T2 sequence (whole entry): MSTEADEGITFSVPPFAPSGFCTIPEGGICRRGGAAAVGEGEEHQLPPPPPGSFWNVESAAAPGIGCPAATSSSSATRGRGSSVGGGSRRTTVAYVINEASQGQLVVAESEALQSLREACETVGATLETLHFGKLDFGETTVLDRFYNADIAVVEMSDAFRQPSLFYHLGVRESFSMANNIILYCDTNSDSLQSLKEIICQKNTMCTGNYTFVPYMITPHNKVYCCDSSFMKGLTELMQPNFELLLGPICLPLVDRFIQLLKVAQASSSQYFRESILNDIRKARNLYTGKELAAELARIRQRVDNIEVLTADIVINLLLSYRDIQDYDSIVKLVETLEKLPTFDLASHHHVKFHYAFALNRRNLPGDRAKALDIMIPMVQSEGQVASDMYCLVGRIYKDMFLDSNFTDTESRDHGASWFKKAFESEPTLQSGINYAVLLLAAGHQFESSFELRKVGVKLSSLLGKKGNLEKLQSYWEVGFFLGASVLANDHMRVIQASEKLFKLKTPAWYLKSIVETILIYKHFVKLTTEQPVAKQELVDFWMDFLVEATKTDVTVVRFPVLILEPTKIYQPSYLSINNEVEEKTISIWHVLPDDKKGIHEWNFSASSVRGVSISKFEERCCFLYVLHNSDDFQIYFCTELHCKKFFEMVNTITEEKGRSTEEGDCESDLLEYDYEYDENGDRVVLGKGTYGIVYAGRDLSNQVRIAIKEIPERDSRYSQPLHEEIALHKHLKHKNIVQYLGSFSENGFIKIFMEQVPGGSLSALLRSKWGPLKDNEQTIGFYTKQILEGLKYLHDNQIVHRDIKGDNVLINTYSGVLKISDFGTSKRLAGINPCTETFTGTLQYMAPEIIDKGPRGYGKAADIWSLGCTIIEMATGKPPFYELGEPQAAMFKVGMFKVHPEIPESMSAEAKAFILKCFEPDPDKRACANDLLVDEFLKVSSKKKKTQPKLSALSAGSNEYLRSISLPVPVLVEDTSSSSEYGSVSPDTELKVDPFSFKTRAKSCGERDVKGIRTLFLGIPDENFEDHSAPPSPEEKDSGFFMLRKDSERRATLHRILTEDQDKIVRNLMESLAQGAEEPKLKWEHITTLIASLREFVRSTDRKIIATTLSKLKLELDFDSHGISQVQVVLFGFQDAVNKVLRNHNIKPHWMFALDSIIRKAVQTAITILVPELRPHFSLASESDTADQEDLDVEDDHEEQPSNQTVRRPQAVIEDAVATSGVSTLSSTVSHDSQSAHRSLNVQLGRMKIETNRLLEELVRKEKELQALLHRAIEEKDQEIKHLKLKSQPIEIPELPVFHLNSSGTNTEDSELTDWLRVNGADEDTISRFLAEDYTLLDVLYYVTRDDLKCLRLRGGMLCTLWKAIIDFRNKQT
The assay is described as follows: Inhibition of MAP3K5 Lys1 labeling site harbouring IAIKEIPER in human A-375 cells at 0.05 uM by KiNativ Profiling analysis relative to control. It is filed as cell-based.

In assay [4] the target is Epidermal growth factor receptor (Homo sapiens) (UniProt P00533). The assay is described as follows: Inhibition of EGFR Lys1 labeling site harbouring IPVAIKELR in human Huh-7 cell lysate at 1 uM by KiNativ Profiling analysis relative to control. Format: subcellular.
Epidermal growth factor receptor (Homo sapiens), sequence (P00533 whole entry): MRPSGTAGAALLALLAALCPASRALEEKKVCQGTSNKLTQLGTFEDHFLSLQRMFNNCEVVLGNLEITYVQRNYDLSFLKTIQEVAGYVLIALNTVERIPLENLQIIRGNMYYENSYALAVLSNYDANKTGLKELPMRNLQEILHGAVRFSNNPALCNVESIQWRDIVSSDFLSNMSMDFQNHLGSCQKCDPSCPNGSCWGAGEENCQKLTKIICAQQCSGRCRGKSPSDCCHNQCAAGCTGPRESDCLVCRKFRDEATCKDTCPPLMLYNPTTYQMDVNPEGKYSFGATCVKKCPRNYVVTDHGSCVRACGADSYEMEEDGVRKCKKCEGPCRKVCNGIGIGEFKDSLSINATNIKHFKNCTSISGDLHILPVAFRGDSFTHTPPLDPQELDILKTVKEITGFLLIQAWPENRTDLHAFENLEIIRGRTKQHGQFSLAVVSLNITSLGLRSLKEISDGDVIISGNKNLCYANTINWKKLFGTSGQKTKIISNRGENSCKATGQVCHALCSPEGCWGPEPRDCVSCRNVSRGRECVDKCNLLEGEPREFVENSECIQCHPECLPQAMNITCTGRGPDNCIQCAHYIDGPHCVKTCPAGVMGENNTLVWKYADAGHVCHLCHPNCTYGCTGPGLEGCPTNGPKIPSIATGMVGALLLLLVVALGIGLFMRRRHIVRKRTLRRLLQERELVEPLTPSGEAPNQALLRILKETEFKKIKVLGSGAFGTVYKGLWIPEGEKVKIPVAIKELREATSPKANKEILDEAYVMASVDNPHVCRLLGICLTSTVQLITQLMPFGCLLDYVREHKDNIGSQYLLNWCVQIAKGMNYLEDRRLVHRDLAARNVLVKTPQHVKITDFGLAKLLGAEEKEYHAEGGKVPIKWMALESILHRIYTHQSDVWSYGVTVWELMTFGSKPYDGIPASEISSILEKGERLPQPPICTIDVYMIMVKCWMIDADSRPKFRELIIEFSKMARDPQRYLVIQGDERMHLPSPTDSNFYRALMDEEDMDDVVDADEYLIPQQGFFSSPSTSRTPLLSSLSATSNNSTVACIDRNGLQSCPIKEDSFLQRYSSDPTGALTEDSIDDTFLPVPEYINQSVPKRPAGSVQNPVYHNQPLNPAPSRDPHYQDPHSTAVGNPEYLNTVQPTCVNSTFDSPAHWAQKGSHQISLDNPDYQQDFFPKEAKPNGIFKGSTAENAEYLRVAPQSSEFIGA
In assay [5] the target is Serine/threonine-protein kinase Nek7 (Homo sapiens) (UniProt Q8TDX7). The assay is described as follows: Inhibition of NEK7 Lys2 labeling site harbouring VMHRDIKPANVFITATGVVK in human Huh-7 cell lysate at 1 uM by KiNativ Profiling analysis relative to control. Format: subcellular.
Serine/threonine-protein kinase Nek7 (Homo sapiens), sequence (Q8TDX7 whole entry, looked up): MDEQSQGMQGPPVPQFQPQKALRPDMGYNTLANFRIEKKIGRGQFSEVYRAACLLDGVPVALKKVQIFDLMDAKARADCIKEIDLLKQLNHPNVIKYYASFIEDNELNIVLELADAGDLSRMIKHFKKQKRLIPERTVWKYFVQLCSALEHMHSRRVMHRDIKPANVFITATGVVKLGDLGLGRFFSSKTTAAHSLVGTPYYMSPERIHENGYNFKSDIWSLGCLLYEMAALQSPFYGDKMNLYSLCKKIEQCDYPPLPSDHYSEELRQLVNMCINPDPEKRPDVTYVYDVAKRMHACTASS
The target in assay [6] is Cyclin-dependent kinase 17 (Homo sapiens) (UniProt Q00537). As to the kind of experiment: Inhibition of PCTAIRE2 Lys1 labeling site in human Huh-7 cells at 1 uM by KiNativ Profiling analysis relative to control. It is filed as cell-based.
Cyclin-dependent kinase 17 (Homo sapiens), sequence (Q00537 whole entry, looked up): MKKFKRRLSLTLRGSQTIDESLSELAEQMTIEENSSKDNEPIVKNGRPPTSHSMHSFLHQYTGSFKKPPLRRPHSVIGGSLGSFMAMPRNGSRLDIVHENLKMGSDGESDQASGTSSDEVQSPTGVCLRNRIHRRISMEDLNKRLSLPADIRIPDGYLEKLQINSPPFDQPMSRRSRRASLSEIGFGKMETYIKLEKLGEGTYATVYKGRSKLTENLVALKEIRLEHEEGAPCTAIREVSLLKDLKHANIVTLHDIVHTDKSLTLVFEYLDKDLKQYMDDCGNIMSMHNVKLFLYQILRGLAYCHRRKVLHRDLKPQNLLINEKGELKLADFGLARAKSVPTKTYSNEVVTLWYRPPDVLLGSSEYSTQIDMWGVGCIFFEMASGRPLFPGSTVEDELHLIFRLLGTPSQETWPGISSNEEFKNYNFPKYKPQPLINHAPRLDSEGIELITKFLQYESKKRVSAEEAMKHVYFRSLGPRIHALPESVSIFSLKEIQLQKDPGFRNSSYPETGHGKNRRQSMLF

The structures appear in SMILES notation. Calls of active or inactive are those of the source. No cut-off for these calls is given here.

Compound `CCN1CCN(Cc2ccc(NC(=O)c3ccc(C)c(/C=C/c4cnc5[nH]ccc5c4OC)c3)cc2C(F)(F)F)CC1` had a percent of control in assay [1] of 0.75%.

As to `CCN1CCN(Cc2ccc(NC(=O)c3ccc(C)c(Oc4ccnc5[nH]ccc45)c3)cc2C(F)(F)F)CC1`, in assay [2], the inhibition result was “inactive”. This compound registered an inhibition in assay [3] of 10.8%.

As to `CNc1cc(Oc2cc(C(=O)Nc3cc(N4CCN(C)CC4)cc(C(F)(F)F)c3)ccc2C)ncn1`, the inhibition in assay [4] was 4.5%; in assay [5], 19.4%; in assay [6], 12%.

As usually defined, the inhibition is how much of the control response was suppressed.
